Assay results taken from publication PMC7698842, “Lanostane Triterpenoid Metabolites from a Penares sp. Marine Sponge Protect Neuro-2a Cells against Paraquat Neurotoxicity” (Molecules, 2020).

Columns and labels:
[1] = DPPH radical scavenging assay (cell-free); conditions: 30 min, MeOH
Protocol: The 2,2-diphenyl-1-picryl-hydrazyl-hydrate (DPPH) radical scavenging activity was tested as described previously. The compounds were dissolved in MeOH, and the solutions (120 µL) were dispensed into wells of a 96-well microplate. The DPPH (Sigma-Aldrich, Steinheim, Germany) was dissolved in MeOH at a concentration of 7.5 × 10^−3 M and the solution (30 µL) was added to each well. The concentrations of tested compounds in the mixtures were 10 and 100 µM. Ascorbic acid was used as a positive control. The mixtures were shaken and left for 30 min. The absorbance of the resulting solutions was measured at λ = 520 nm with a MultiscanFC plate reader (Thermo Scientific, Waltham, MA, USA). The concentration scavenging 50% of the DPPH radical (EC50) was calculated for each compound.

[2] = test system: PQ-treated Neuro-2a cells; assay: PQ-treated Neuro-2a cell viability (MTT assay); format: cell-based, mouse; conditions: compound 1 and 10 µM, PQ 500 µM, 24 h
Protocol: The cells (1 × 10^4 cells/well of a 96-well plate) were incubated with different concentrations of studied compounds during 24 h. After that, cell viability was determined by the MTT (3-(4,5-dimethylthiazol-2-yl)-2,5-diphenyltetrazolium bromide) method according to the manufacturer’s instructions (Sigma-Aldrich, St. Louis, MO, USA). Absorbance of the converted formazan was measured using a Multiskan FC microplate photometer (Thermo Scientific, Waltham, MA, USA) at λ = 570 nm. The results were presented as percent of control data, and concentration of cell viability inhibition on 50% (IC50) was calculated.
(§1) The cells (1 × 10^4 cells/well of a 96-well plate) were treated with studied compounds at concentrations of 1 and 10 µM for 1 h and then 500 µM of PQ (Sigma-Aldrich, St. Louis, MO, USA) was added to the neuroblastoma cells. Cells incubated without PQ and compounds and with PQ alone were used as positive and negative controls, respectively. The viability of cells was measured after 24 h using MTT and FDA methods. The results were presented as percent of positive control data.

[3] = test system: PQ-treated Neuro-2a cells; assay: PQ-treated Neuro-2a cell viability (FDA assay); format: cell-based, mouse; conditions: compound 1 and 10 µM, PQ 500 µM, 24 h
Protocol: A stock solution of the fluorescein diacetate (FDA) (Sigma-Aldrich, St. Louis, MO, USA) in DMSO (1 mg/mL) was prepared. The cells (1 × 10^4 cells/well) were seeded in black 96-well plates before testing. After incubation of the cells with compounds and PQ during 24 h, FDA solution (50 μg/mL) was added to each well and the plate was incubated in the dark at 37 °C for 15 min. Cells were washed with phosphate buffer saline (PBS) (BioloT, S.-Peterburg, Russia) and fluorescence was measured with a Fluoroskan Ascent plate reader (Thermo Labsystems, Helsinki, Finland) at λex = 485 nm and λem = 518 nm. All manipulations with fluorescent probes were carried out in a darkened room. Cell viability was expressed as the percent of control.
as §1

[4] = test system: PQ-treated Neuro-2a cells; assay: Propidium iodide straining of PQ-treated Neuro-2a cells (membrane permeability); format: cell-based, mouse; conditions: compound 10 μM pre-incubation, PQ-treated cells, 24 h
Protocol: The cells (1 × 10^4 cells/well) were seeded in black 96-well plates before testing. After incubation of the cells with compounds and PQ during 24 h, PI solution (10 μg/mL) was added to each well and the plate was incubated in the dark at 37 °C for 10 min. Cells were washed with phosphate buffer saline (PBS) (BioloT, St.Peterburg, Russia) and fluorescence was measured with a Fluoroskan Ascent plate reader (Thermo Labsystems, Helsinki, Finland) at […]. All manipulations with fluorescent probes were carried out in a darkened room. The results were presented as percent of positive control data.

[5] = test system: Hsp70 level in Neuro-2a cells; assay: Hsp70 level analysis by Western blot in Neuro-2a cells; format: cell-based, mouse; conditions: compound 10 µM 1 h, then PQ 500 µM 24 h
Protocol: The Hsp70 expression was detected by Western blot analysis. Cell suspensions (1.6 × 10^5 cells/well of a 6-well plate) were seeded and treated with studied compounds at a concentration of 10 µM for 1 h. After that, PQ (500 µM) was added and cells were incubated during 24 h. Cells incubated without PQ and compounds and with PQ alone were used as positive and negative controls, respectively. Cells were washed by cold PBS (BioloT, Russia) twice and lysed by radioimmunoprecipitation assay (RIPA) buffer (BioloT, St. Peterburg, Russia). The amount of proteins was measured by the Bradford method and equal samples (25 µg) were prepared using sample buffer. Proteins were separated with sodium dodecyl sulphate (SDS) electrophoresis in 10% polyacrylamide gel. The electrophoretically separated proteins were transferred onto the polyvinylidene difluoride (PVDF) membrane Whatman (Sigma-Aldrich, St. Louis, MO, USA) using a semi-dry transfer apparatus (Helicon, Moscow, Russia). […] The peroxidase reaction was visualized by an enhanced chemiluminescence (ECL) kit according to the instructions of the manufacturer (Sigma-Aldrich, St. Louis, MO, USA) using the VersaDoc Imaging System (Bio-Rad, Hercules, CA, USA).

[6] = test system: PQ-treated Neuro-2a cells; assay: Neurite outgrowth estimation in PQ-treated Neuro-2a cells; format: cell-based, mouse; conditions: compound 10 µM 1 h, then PQ 500 µM 24 h
Protocol: Neurite outgrowth was studied as described by Li et al.. Neuro-2a cells were seeded in 6-well plates (1.6 × 10^5 cells/well) in DMEM medium containing 10% fetal bovine serum (Biolot, St. Peterburg, Russia) and 1% penicillin/streptomycin (Invitrogen, Carlsbad, CA, USA). The next day, this growth media was changed with serum-free DMEM media containing 1% penicillin/streptomycin, and cells were treated with studied compounds at a concentration of 10 µM for 1 h. After that, PQ (500 µM) was added and cells were incubated during 24 h. Cells incubated without PQ and compounds and with PQ alone were used as positive and negative controls, respectively.
For each well, approximately 10 images were acquired randomly by scanning the wells from left to right and top to bottom using the AxioImager A1 microscope (CarlZeiss, Oberkochen, Germany). A total of ten random fields (near 350 cells in each) for each experimental group were scored for neurite outgrowth. The number of neurite-bearing cells and lengths of the individual neurites for each cell were measured using the AxioVision 4.7.1 software (CarlZeiss, Oberkochen, Germany). Length was defined as the straight-line distance from the tip of the neurite to the junction between the cell body and neurite base. In the case of branched neurites, the length of the longest branch was measured from the tip of the neurite to the cell body. In each experimental group, the average length of neurites was calculated, as well as the average number of neurites per one cell.

Q: Which EC50 [1] does the source give for CC(C)=CCC[C@@H](C)[C@H]1CC[C@@]2(C(=O)O)C3=C(CC[C@]12C)[C@@]1(C)CCC(=O)C(C)(C)[C@@H]1CC3 [Compound 4, penasterone] here?
A: The EC50 was > 100 µM.

Q: And the “effect on PQ-treated cell viability (MTT assay)” value [2]?
A: The value was “did not show any effect”.

Q: And the “effect on PQ-treated cell viability (FDA assay)” value [3]?
A: Its value is “did not show any effect”.

Q: And the “decrease of fluorescence of PI-straining cells” value [4]?
A: The value was 17%.

Q: And the “increase of Hsp70 level in PQ-treated cells” value [5]?
A: The value was 56%.

Q: What about the “increase in the average number of neurites per cell” value [6] of the same molecule?
A: The value was 27%.

Q: And the “increase of neurites-bearing cell amount compared to PQ-treated control” value [6]?
A: The value was 134%.
